Activity calls are given as the source filed them. Unless noted, the rule behind the calls is not given here.
Key:
HEK293 [1] = assay: cells; settings: Homo sapiens
HEK293 [2] = assay: cells; settings: Homo sapiens; remark: listed apart in the source
HeLa [3] = assay: Cytotoxicity Assay in HeLa Cells. [Related pubchem assays: 1299, 1270, 1295, 1375, 1287, 1281, 1293, 1291, 1289, 1280, 465, 1364, 1282, 1372, 1365, 1370, 1367, 1366, 1266, 1269, 1373, 1292, 1290, 1371, 1283, 1271, 1294, 1374, 1368, 1369 ]; type: functional, cell-based; settings: Homo sapiens
[4] = target: Protein kinase C theta type (Homo sapiens, UniProt Q04759); assay: In Vitro Kinase Assay Using Purified Enzyme PKC-theta. [Related pubchem assays: 1299, 1270, 1295, 1375, 1287, 1281, 1293, 1291, 1289, 1280, 465, 1364, 1282, 1372, 1365, 1370, 1367, 1366, 1266, 1269, 1373, 1292, 1290, 1302, 1371, 1271, 1294, 1374, 1368, 1369 ]
HEK293 [5] = assay: cells; settings: Homo sapiens; remark: listed apart in the source
HEK293 [6] = assay: cells; settings: Homo sapiens; remark: listed apart in the source
HEK293 [7] = assay: Cytotoxicity assay in HEK293 cells. [Related pubchem assays (depositor defined):AID1266, AID1269, AID1270, AID1271, AID1280, AID1281, AID1282, AID1283, AID1287, AID1289, AID1290, AID1291, AID1292, AID1293, AID1294, AID1295, AID1299, AID1302, AID1364, AID1365, AID1366, AID1367, AID1369, AID1370, AID1371, AID1372, AID1373, AID1374, AID1375, AID1384 …; type: functional, cell-based; settings: Homo sapiens
HEK293 [8] = assay: PMA/Ionomycin-induced IL-8 production in HEK293- NF-kB-Luc stable cells. [Related pubchem assays: 1299, 1295, 1375, 1287, 1281, 1293, 1291, 1289, 1280, 465, 1364, 1282, 1372, 1365, 1367, 1366, 1266, 1269, 1373, 1292, 1290, 1302, 1371, 1283, 1271, 1294, 1374, 1368, 1369 ]; type: functional, cell-based; settings: Homo sapiens
[9] = target: Protein kinase C beta type (Homo sapiens, UniProt P05771); assay: In Vitro Kinase Assay Using Purified Enzyme PKC-beta. [Related pubchem assays: 1299, 1270, 1295, 1375, 1287, 1281, 1293, 1291, 1289, 465, 1364, 1282, 1372, 1365, 1370, 1367, 1366, 1266, 1269, 1373, 1292, 1290, 1302, 1371, 1283, 1271, 1294, 1374, 1368, 1369 ]
Jurkat [10] = assay: IL-2 Production Assay in Jurkat T-cells Stimulated with anti-CD3/anti-CD28 antibodies. [Related pubchem assays: 1299, 1270, 1295, 1375, 1287, 1281, 1293, 1291, 1289, 1280, 465, 1364, 1282, 1372, 1365, 1370, 1367, 1366, 1266, 1269, 1373, 1292, 1290, 1302, 1371, 1283, 1294, 1374, 1368, 1369 ]; type: functional, cell-based; settings: Homo sapiens
HEK293 [11] = assay: cells; settings: Homo sapiens; remark: listed apart in the source
HeLa [12] = assay: PMA/Ionomycin induced NF-kB luciferase in HeLa cells. [Related pubchem assays (depositor defined):AID1266, AID1269, AID1270, AID1271, AID1280, AID1281, AID1282, AID1283, AID1287, AID1289, AID1290, AID1291, AID1292, AID1293, AID1294, AID1295, AID1299, AID1302, AID1364, AID1365, AID1366, AID1367, AID1368, AID1369, AID1370, AID1371, AID1372, AID1373 …; type: functional, cell-based; settings: Homo sapiens
MCF7 [13] = assay: Cytotoxicity assay in MCF7 cells. [Related pubchem assays (depositor defined):AID1266, AID1269, AID1270, AID1271, AID1280, AID1281, AID1282, AID1283, AID1287, AID1289, AID1290, AID1291, AID1292, AID1293, AID1294, AID1295, AID1299, AID1302, AID1364, AID1365, AID1366, AID1367, AID1368, AID1369, AID1370, AID1371, AID1372, AID1374, AID1375, AID1384 …; type: functional, cell-based; settings: Homo sapiens
[14] = Anti-IgM induced B cell proliferation of mouse primary lymphocytes. [Related pubchem assays: 1266, 1299, 1269, 1373, 1292, 1290, 1302, 1371, 1283, 1270, 1295, 1271, 1375, 1294, 1287, 1374, 1281, 1293, 1291, 1289, 1280, 465, 1368, 1364, 1282, 1372, 1369, 1370, 1367, 1366 ]; type: functional, cell-based
Jurkat [15] = assay: Cytotoxicity assay in Jurkat T cells. [Related pubchem assays (depositor defined):AID1266, AID1269, AID1270, AID1271, AID1280, AID1281, AID1282, AID1283, AID1287, AID1289, AID1290, AID1291, AID1292, AID1293, AID1294, AID1295, AID1299, AID1302, AID1364, AID1365, AID1366, AID1368, AID1369, AID1370, AID1371, AID1372, AID1373, AID1374, AID1375 …; type: functional, cell-based; settings: Homo sapiens
MCF7 [16] = assay: GM-Tri-DAP induced IL-8 production in MCF-7/NOD1 cells. [Related pubchem assays (depositor defined):AID1266, AID1269, AID1270, AID1271, AID1280, AID1281, AID1282, AID1283, AID1287, AID1289, AID1290, AID1291, AID1292, AID1293, AID1294, AID1295, AID1299, AID1302, AID1364, AID1365, AID1366, AID1367, AID1368, AID1369, AID1371, AID1372, AID1373 …; type: functional, cell-based; settings: Homo sapiens
HEK293 [17] = assay: TNF Induced NF-kB Luciferase in 293-NF-kB-Luc Stable Cells. [Related pubchem assays: 1266, 1299, 1269, 1373, 1292, 1290, 1302, 1371, 1283, 1270, 1295, 1271, 1375, 1294, 1374, 1281, 1293, 1291, 1289, 1280, 465, 1368, 1364, 1282, 1372, 1365, 1369, 1370, 1367, 1366 ]; type: functional, cell-based; settings: Homo sapiens
HEK293 [18] = assay: PMA/Ionomycin induced NF-kB luciferase assay in 293- NF-kB-Luc stable cells. [Related pubchem assays: 1299, 1270, 1295, 1375, 1287, 1281, 1293, 1291, 1289, 1280, 465, 1364, 1282, 1372, 1365, 1370, 1367, 1366, 1269, 1373, 1292, 1290, 1302, 1371, 1283, 1271, 1294, 1374, 1368, 1369 ]; type: functional, cell-based; settings: Homo sapiens
THP-1 = assay: LPS induced NF-kB in THP.1 cells. [Related pubchem assays (depositor defined):AID1266, AID1269, AID1270, AID1271, AID1280, AID1281, AID1282, AID1283, AID1287, AID1289, AID1290, AID1291, AID1292, AID1293, AID1294, AID1295, AID1299, AID1302, AID1364, AID1365, AID1366, AID1367, AID1368, AID1370, AID1371, AID1372, AID1373, AID1374, AID1375, AID1384 …; type: functional, cell-based; settings: Homo sapiens
HEK293 [19] = assay: cells; settings: Homo sapiens; remark: listed apart in the source
HEK293 [20] = assay: cells; settings: Homo sapiens; remark: listed apart in the source
[21] = Anti-cd3/cd28 induced T cell proliferation of mouse primary lymphocytes. [Related pubchem assays: 1299, 1270, 1295, 1375, 1287, 1281, 1293, 1291, 1289, 1280, 465, 1282, 1372, 1365, 1370, 1367, 1366, 1266, 1269, 1373, 1292, 1290, 1302, 1371, 1283, 1271, 1294, 1374, 1368, 1369 ]; type: functional, cell-based
MCF7 [22] = assay: PMA/Ionomycin induced NF-kB luciferase in MCF7 cells. [Related pubchem assays (depositor defined):AID1266, AID1269, AID1270, AID1271, AID1280, AID1281, AID1282, AID1283, AID1287, AID1289, AID1290, AID1291, AID1292, AID1293, AID1294, AID1295, AID1299, AID1302, AID1364, AID1365, AID1367, AID1368, AID1369, AID1370, AID1371, AID1372, AID1373, AID1374 …; type: functional, cell-based; settings: Homo sapiens
HEK293 [23] = assay: cells; settings: Homo sapiens; remark: listed apart in the source
[24] = target: Inhibitor of nuclear factor kappa-B kinase subunit beta (Homo sapiens, UniProt O14920); assay: In Vitro Kinase Assay Using Purified Enzyme IKK-beta. [Related pubchem assays: 1266, 1299, 1269, 1373, 1292, 1290, 1302, 1371, 1283, 1270, 1295, 1271, 1375, 1294, 1287, 1374, 1281, 1293, 1291, 1289, 1280, 465, 1368, 1364, 1372, 1365, 1369, 1370, 1367, 1366 ]
[25] = target: Luciferin 4-monooxygenase (Photinus pyralis, UniProt P08659); assay: In vitro luciferase assay using purified luciferase. [Related pubchem assays: 1299, 1270, 1295, 1375, 1287, 1281, 1293, 1291, 1289, 1280, 465, 1364, 1282, 1372, 1365, 1370, 1367, 1366, 1266, 1373, 1292, 1290, 1302, 1371, 1283, 1271, 1294, 1374, 1368, 1369 ]
HEK293 [26] = assay: cells; settings: Homo sapiens; remark: listed apart in the source
PPC-1 = assay: PMA/Ionomycin induced NF-kB luciferase in PPC-1 cells. [Related pubchem assays (depositor defined):AID1266, AID1269, AID1270, AID1271, AID1280, AID1281, AID1282, AID1283, AID1287, AID1289, AID1290, AID1291, AID1292, AID1293, AID1294, AID1295, AID1299, AID1302, AID1364, AID1365, AID1366, AID1367, AID1368, AID1369, AID1370, AID1371, AID1372, AID1373 …; type: functional, cell-based; settings: Homo sapiens
HEK293 [27] = assay: cells; settings: Homo sapiens; remark: listed apart in the source

Sequence of Protein kinase C theta type (Q04759 whole entry): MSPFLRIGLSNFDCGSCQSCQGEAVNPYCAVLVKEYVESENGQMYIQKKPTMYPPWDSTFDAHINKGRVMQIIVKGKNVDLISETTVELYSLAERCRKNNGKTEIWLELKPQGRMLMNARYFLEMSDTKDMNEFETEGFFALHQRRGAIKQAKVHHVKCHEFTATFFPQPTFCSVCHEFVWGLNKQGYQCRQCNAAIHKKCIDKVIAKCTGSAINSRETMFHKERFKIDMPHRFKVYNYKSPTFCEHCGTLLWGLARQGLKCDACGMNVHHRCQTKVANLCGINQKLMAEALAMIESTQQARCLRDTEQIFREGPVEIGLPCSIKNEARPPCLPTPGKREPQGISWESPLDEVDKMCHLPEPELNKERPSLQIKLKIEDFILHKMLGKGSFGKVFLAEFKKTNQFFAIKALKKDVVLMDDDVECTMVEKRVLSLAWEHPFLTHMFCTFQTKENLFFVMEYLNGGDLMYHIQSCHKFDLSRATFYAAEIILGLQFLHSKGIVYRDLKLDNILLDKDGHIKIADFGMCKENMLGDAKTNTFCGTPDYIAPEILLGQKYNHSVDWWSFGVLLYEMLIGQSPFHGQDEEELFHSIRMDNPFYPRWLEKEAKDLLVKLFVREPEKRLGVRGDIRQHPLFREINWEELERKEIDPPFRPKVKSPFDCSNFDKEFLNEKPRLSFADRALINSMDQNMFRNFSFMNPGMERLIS
Sequence of Inhibitor of nuclear factor kappa-B kinase subunit beta (O14920 whole entry): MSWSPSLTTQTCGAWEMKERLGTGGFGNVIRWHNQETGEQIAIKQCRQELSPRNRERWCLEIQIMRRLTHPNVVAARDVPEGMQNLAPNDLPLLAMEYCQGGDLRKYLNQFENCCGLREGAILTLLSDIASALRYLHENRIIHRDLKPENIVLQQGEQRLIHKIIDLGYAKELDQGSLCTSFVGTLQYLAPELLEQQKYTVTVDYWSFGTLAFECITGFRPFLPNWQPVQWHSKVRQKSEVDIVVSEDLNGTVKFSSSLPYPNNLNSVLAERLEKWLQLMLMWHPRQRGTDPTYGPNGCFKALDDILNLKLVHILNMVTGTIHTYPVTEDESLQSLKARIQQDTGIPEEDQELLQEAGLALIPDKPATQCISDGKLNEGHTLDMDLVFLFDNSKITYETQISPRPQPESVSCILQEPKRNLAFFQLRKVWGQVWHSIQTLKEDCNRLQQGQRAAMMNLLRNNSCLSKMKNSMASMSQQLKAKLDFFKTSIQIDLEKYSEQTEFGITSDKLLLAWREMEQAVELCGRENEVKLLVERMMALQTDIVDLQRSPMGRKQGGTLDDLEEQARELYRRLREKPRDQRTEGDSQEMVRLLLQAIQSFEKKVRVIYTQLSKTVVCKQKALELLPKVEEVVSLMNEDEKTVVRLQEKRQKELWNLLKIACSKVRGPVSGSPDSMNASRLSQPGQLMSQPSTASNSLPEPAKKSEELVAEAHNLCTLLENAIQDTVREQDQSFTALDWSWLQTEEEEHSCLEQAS
Sequence of Protein kinase C beta type (P05771 whole entry): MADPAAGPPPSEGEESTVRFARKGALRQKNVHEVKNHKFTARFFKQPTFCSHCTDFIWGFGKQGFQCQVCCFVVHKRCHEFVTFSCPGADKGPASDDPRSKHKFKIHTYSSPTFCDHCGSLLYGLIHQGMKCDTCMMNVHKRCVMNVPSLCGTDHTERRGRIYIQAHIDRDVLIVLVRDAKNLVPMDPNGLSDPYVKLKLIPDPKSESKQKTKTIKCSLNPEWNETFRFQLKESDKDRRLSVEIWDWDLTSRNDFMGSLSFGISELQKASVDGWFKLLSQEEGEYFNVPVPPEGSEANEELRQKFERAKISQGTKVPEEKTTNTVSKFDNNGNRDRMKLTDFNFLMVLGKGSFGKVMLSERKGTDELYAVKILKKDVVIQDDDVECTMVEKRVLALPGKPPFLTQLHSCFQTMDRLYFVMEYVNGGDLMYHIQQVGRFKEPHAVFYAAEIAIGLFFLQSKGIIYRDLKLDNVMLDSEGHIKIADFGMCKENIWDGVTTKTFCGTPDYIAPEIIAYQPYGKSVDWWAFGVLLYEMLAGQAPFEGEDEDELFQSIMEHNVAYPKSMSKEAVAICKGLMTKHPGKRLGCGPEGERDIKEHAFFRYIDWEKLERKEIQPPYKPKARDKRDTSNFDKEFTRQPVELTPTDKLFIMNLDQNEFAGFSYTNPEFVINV
Sequence of Luciferin 4-monooxygenase (P08659 whole entry): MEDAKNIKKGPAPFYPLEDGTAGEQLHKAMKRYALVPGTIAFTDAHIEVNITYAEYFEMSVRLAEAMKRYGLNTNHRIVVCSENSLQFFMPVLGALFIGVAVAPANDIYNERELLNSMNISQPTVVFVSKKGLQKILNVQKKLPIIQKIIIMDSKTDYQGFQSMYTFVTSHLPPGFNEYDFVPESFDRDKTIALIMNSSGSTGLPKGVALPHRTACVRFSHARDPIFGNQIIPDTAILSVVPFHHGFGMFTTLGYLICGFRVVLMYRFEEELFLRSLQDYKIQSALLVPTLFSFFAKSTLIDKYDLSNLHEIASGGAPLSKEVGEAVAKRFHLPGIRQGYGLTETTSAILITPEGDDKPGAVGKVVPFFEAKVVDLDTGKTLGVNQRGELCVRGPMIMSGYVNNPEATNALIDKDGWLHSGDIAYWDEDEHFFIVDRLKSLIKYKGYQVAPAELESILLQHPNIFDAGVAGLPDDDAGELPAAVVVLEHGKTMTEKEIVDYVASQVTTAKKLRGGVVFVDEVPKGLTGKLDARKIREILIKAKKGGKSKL

Which results are given for `Cc1cc2nc(NCCCO)n(CC(=O)c3cc(C(C)(C)C)c(O)c(C(C)(C)C)c3)c2cc1C`?
EC50 (HEK293 [1]): > 4 µM (not active); EC50 (HEK293 [2]): > 4 µM (inactive); EC50 (HeLa [3]): > 4 µM (not active); EC50 [4]: > 4 µM (not active); EC50 (HEK293 [5]): > 4 µM (not active); EC50 (HEK293 [6]): > 4 µM (not active); EC50 (HEK293 [7]): > 8 µM (inactive); EC50 (HEK293 [8]): 0.0604 µM (active); EC50 [9]: > 4 µM (not active); EC50 (Jurkat [10]): 2.57 µM (active); EC50 (HEK293 [11]): > 4 µM (not active); EC50 (HeLa [12]): > 4 µM (inactive); EC50 (MCF7 [13]): > 8 µM (inactive); EC50 [14]: 2.81 µM (active); EC50 (Jurkat [15]): > 8 µM (inactive); EC50 (MCF7 [16]): > 8 µM (inactive); EC50 (HEK293 [17]): > 8 µM (not active); EC50 (HEK293 [18]): 0.129 µM (active); EC50 (THP-1): 5.74 µM (inactive); EC50 (HEK293 [19]): 0.672 µM (active); EC50 (HEK293 [20]): > 4 µM (not active); EC50 [21]: > 4 µM (not active); EC50 (MCF7 [22]): > 4 µM (inactive); EC50 (HEK293 [23]): > 4 µM (inactive); EC50 [24]: > 4 µM (not active); EC50 [25]: > 8 µM (not active); EC50 (HEK293 [26]): 0.23 µM (active); EC50 (PPC-1): > 4 µM (inactive); EC50 (HEK293 [27]): > 4 µM (not active)

— ChEMBL document CHEMBL1201862, “PubChem BioAssay data set” (2004)
